According to ChEMBL document CHEMBL1132959, “Design of potent dicyclic (1-5/4-10) gonadotropin releasing hormone (GnRH) antagonists” (J Med Chem, 2000):

Legend:
[1] = organism: Rattus norvegicus; experiment: Antiovulatory potency at 250 ug/rat expressed as rats ovulating by total no. of rats (0/5); type: functional
[2] = organism: Rattus norvegicus; experiment: Antiovulatory potency at 100 ug/rat expressed as rats ovulating by total no. of rats (5/5); type: functional
[3] = biological target: T1, Gonadotropin-releasing hormone receptor (Rattus norvegicus, UniProt P30969); experiment: Affinity for rat gonadotrophin releasing hormone (GnRH) receptor using HEK293 cells transfected with rat Gonadotropin-releasing hormone receptor; type: cell-based; conditions: hek293
T1 sequence (P30969 whole entry): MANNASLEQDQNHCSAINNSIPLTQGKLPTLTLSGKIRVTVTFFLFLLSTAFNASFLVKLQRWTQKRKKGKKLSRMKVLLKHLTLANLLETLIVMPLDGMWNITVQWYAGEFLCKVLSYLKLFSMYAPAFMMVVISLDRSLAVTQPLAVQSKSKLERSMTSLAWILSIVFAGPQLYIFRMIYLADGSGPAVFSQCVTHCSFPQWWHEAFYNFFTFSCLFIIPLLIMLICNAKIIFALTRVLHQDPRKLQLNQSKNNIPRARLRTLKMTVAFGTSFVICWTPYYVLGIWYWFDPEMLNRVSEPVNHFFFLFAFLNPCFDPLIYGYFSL

[4] = organism: Rattus norvegicus; experiment: Antiovulatory potency at 500 ug/rat expressed as rats ovulating by total no. of rats (5/7); type: functional
[5] = organism: Rattus norvegicus; experiment: Antiovulatory potency at 10 ug/rat expressed as rats ovulating by total no. of rats (0/6); type: functional
[6] = organism: Rattus norvegicus; experiment: Antiovulatory potency at 5 ug/rat expressed as rats ovulating by total no. of rats (1/7); type: functional
[7] = organism: Rattus norvegicus; experiment: Antiovulatory potency at 2.5 ug/rat expressed as rats ovulating by total no. of rats (2/8); type: functional
[8] = organism: Rattus norvegicus; experiment: Antiovulatory potency at 1 ug/rat expressed as rats ovulating by total no. of rats (5/7); type: functional
[9] = organism: Rattus norvegicus; experiment: Antiovulatory potency at 2.5 ug/rat expressed as rats ovulating by total no. of rats (4/16); type: functional
[10] = organism: Rattus norvegicus; experiment: Antiovulatory potency at 5 ug/rat expressed as rats ovulating by total no. of rats (0/5); type: functional
[11] = organism: Rattus norvegicus; experiment: Antiovulatory potency at 25 ug/rat expressed as rats ovulating by total no. of rats (3/7); type: functional
[12] = organism: Rattus norvegicus; experiment: Antiovulatory potency at 10 ug/rat expressed as rats ovulating by total no. of rats (5/5); type: functional
[13] = organism: Rattus norvegicus; experiment: Antiovulatory potency at 50 ug/rat expressed as rats ovulating by total no. of rats (0/5); type: functional

CC(=O)N[C@H](Cc1ccc2ccccc2c1)C(=O)N[C@H](Cc1ccc(Cl)cc1)C(=O)N[C@@H]1CC(=O)NCCC[C@@H](C(=O)N2CCC[C@H]2C(=O)N[C@H](C)C(N)=O)NC(=O)[C@H](CC(C)C)NC(=O)[C@@H](Cc2ccc3ccccc3c2)NC(=O)[C@H](CCCN=C(N)N)NC(=O)[C@H](C)NC1=O
Ovulating rats [1]: 0 | Ovulating rats [2]: 5

CC(=O)N[C@H](Cc1ccc2ccccc2c1)C(=O)N[C@H]1CSSC[C@@H]2NC(=O)[C@H](Cc3ccc(O)cc3)NC(=O)[C@H](CC(=O)NC[C@@H](C(N)=O)NC(=O)[C@@H]3CCCN3C(=O)[C@H](CCCN=C(N)N)NC(=O)[C@H](CC(C)C)NC2=O)NC(=O)[C@@H](Cc2c[nH]c3ccccc23)NC1=O
Ki [3]: 0.013 µM | Ovulating rats [4]: 5

CC(=O)N[C@@H]1CCC(=O)NCC(=O)NCC[C@H]2NC(=O)[C@@H](CC(=O)NC[C@H](C(N)=O)NC(=O)[C@H]3CCCN3C(=O)[C@H](CCCN=C(N)N)NC(=O)[C@@H](CC(C)C)NC(=O)[C@@H](Cc3ccc4ccccc4c3)NC2=O)NC(=O)[C@@H](Cc2c[nH]c3ccccc23)NC(=O)[C@H](Cc2ccc(Cl)cc2)NC1=O
Ovulating rats [5]: 0 | Ovulating rats [6]: 1 | Ovulating rats [7]: 2

CC(=O)N[C@H]1CC(=O)NCC(=O)NCC[C@@H]2NC(=O)[C@H](CC(=O)NC[C@@H](C(N)=O)NC(=O)[C@@H]3CCCN3C(=O)[C@H](CCCN=C(N)N)NC(=O)[C@H](CC(C)C)NC(=O)[C@@H](Cc3ccc4ccccc4c3)NC2=O)NC(=O)[C@@H](Cc2c[nH]c3ccccc23)NC(=O)[C@@H](Cc2ccc(Cl)cc2)NC1=O
Ovulating rats [8]: 5 | Ovulating rats [9]: 4 | Ovulating rats [10]: 0

CC(=O)N[C@H](Cc1ccc2ccccc2c1)C(=O)N[C@H](Cc1ccc(Cl)cc1)C(=O)N[C@@H]1CC(=O)NCCCC[C@@H](C(=O)N2CCC[C@H]2C(=O)N[C@H](C)C(N)=O)NC(=O)[C@H](CC(C)C)NC(=O)[C@@H](Cc2ccc3ccccc3c2)NC(=O)[C@H](CCCN=C(N)N)NC(=O)[C@H](C)NC1=O
Ovulating rats [11]: 3 | Ovulating rats [12]: 5 | Ovulating rats [13]: 0
